Usually IC50 stands for the concentration at which inhibition is half-maximal. The low end stands for inhibition by little substance, the high end for a need for much substance.

Our source for the IC50 values is US20230340011A1 (Asteroid Therapeutics, priority 2022, published 2023).

This test concerns the target SREBP-2 (Homo sapiens (Human), UniProt Q12772). Kind of test: In vitro assay SREBP-2: PathHunter U2OS SREBP-2 Nuclear Translocation Cell Line, U18666A-stimulated. It counts as cell-based. As to conditions: PathHunter U2OS SREBP-2 nuclear translocation cells, U18666A 10 μM, overnight (16 hours).
With `C[C@H](CCC(=O)N1CCC(O)(C2CCC2)CC1)[C@H]1CC[C@H]2[C@@H]3CC=C4C[C@@H](O)CC[C@]4(C)[C@H]3CC[C@]12C` [Example 194, (R)-1-(4-cyclobutyl-4-hydroxypiperidin-1-yl)-4-((3S,8S,9S,10R,13R,14S,17R)-3-hydroxy-10,13-dimethyl-2,3,4,7,8,9,10,11,12,13,14,15,16,17-tetradecahydro-1H-cyclopenta[a]phenanthren-17-yl)pentan-1-one], the IC50 was less than 250 nM. As for `Cc1ccnc(OC[C@@H](C)[C@H]2CC[C@H]3[C@@H]4CC=C5C[C@@H](O)CC[C@]5(C)[C@H]4CC[C@]23C)c1` [Example 262, (1R,3aS,3bS,7S,9aR,9bS,11aS)-9a,11a-dimethyl-1-[(2S)-1-[(4-methylpyridin-2-yl)oxy]propan-2-yl]-1H,2H,3H,3aH,3bH,4H,6H,7H,8H,9H,9aH,9bH,10H,11H,11aH-cyclopenta[a]phenanthren-7-ol], the figure is less than 250 nM; as for `C[C@H](Oc1cnccc1CO)[C@H]1CC[C@H]2[C@@H]3CC=C4C[C@@H](O)CC[C@]4(C)[C@H]3CC[C@]12C` [Example 268, (3S,8S,9S,10R,13S,14S,17S)-17-((S)-1-((4-(hydroxymethyl)pyridin-3-yl)oxy)ethyl)-10,13-dim ethyl-2,3,4,7,8,9,10,11,12,13,14,15,16,17-tetradecahydro-1H-cyclopenta[a]phenanthren-3-ol], 250 to 1000 nM; as for `C[C@H](CCC(=O)N1CCC(N2CCOC(C)(C)C2=O)CC1)[C@H]1CC[C@H]2[C@@H]3CC=C4C[C@@H](O)CC[C@]4(C)[C@H]3CC[C@]12C` [Example 524, 4-(1-((R)-4-((3S,8S,9S,10R,13R,14S,17R)-3-hydroxy-10,13-dimethyl-2,3,4,7,8,9,10,11,12,13,14,15,16,17-tetradecahydro-1H-cyclopenta[a]phenanthren-17-yl)pentanoyl)piperidin-4-yl)-2,2-dimethylmorpholin-3-one], 250 to 1000 nM. As for `CNC(=O)c1ccnc(OC[C@@H](C)[C@H]2CC[C@H]3[C@@H]4CC=C5C[C@@H](O)CC[C@]5(C)[C@H]4CC[C@]23C)c1` [Example 254, 2-((S)-2-((3S,8S,9S,10R,13S,14S,17R)-3-hydroxy-10,13-dimethyl-2,3,4,7,8,9,10,11,12,13,14,15,16,17-tetradecahydro-1H-cyclopenta[a]phenanthren-17-yl)propoxy)-N-methylisonicotinamide], the figure is less than 250 nM.

Compound `C[C@H](CCC(=O)N1CC[C@H](NC(=O)c2cnccn2)C1)[C@H]1CC[C@H]2[C@@H]3CC=C4C[C@@H](O)CC[C@]4(C)[C@H]3CC[C@]12C` [Example 529, N—((S)-1-((R)-4-((3S,8S,9S,10R,13R,14S,17R)-3-hydroxy-10,13-dimethyl-2,3,4,7,8,9,10,11,12,13,14,15,16,17-tetradecahydro-1H-cyclopenta[a]phenanthren-17-yl)pentanoyl)pyrrolidin-3-yl)pyrazine-2-carboxamide] yielded an IC50 of less than 250 nM. As for `C[C@H](CCC(=O)N1CCC(O)(CO)CC1)[C@H]1CC[C@H]2[C@@H]3CC=C4C[C@@H](O)CC[C@]4(C)[C@H]3CC[C@]12C` [Example 150, (R)-4-((3S,8S,9S,10R,13R,14S,17R)-3-hydroxy-10,13-dimethyl-2,3,4,7,8,9,10,11,12,13,14,15,16,17-tetradecahydro-1H-cyclopenta[a]phenanthren-17-yl)-1-(4-hydroxy-4-(hydroxymethyl)piperidin-1-yl)pentan-1-one], the figure is less than 250 nM; as for `CNC(=O)c1ccncc1O[C@@H](C)[C@H]1CC[C@H]2[C@@H]3CC=C4C[C@@H](O)CC[C@]4(C)[C@H]3CC[C@]12C` [Example 265, 3-((S)-1-((3S,8S,9S,10R,13S,14S,17S)-3-hydroxy-10,13-dimethyl-2,3,4,7,8,9,10,11,12,13,14,15,16,17-tetradecahydro-1H-cyclopenta[a]phenanthren-17-yl)ethoxy)-N-methylisonicotinamide], 1000 to 10000 nM. Under `C[C@H](OCC(=O)N1CCC(C)(CO)CC1)[C@H]1CC[C@H]2[C@@H]3CC=C4C[C@@H](O)CC[C@]4(C)[C@H]3CC[C@]12C` [Example 366, 2-((S)-1-((3S,8S,9S,10R,13S,14S,17S)-3-hydroxy-10,13-dimethyl-2,3,4,7,8,9,10,11,12,13,14,15,16,17-tetradecahydro-1H-cyclopenta[a]phenanthren-17-yl)ethoxy)-1-(4-(hydroxymethyl)-4-methylpiperidin-1-yl)ethan-1-one] stands 250 to 1000 nM; under `CC(=O)N1CCC(C(=O)N(C)CC[C@@H](C)[C@H]2CC[C@H]3[C@@H]4CC=C5C[C@@H](O)CC[C@]5(C)[C@H]4CC[C@]23C)CC1` [Example 294, 1-acetyl-N—((R)-3-((3S,8S,9S,10R,13R,14S,17R)-3-hydroxy-10,13-dimethyl-2,3,4,7,8,9,10,11,12,13,14,15,16,17-tetradecahydro-1H-cyclopenta[a]phenanthren-17-yl)butyl)-N-methylpiperidine-4-carboxamide], 250 to 1000 nM; under `C[C@H](CCC(=O)N1CCN(C(N)=O)CC1)[C@H]1CC[C@H]2[C@@H]3CC=C4C[C@@H](O)CC[C@]4(C)[C@H]3CC[C@]12C` [Example 4, 4—((R)-4-((3S,8S,9S,10R,13R,14S,17R)-3-hydroxy-10,13-dimethyl-2,3,4,7,8,9,10,11,12,13,14,15,16,17-tetradecahydro-1H-cyclopenta[a]phenanthren-17-yl)pentanoyl)piperazine-1-carboxamide], less than 250 nM. Under `Cc1noc(C2CCN(C(=O)CC[C@@H](C)[C@H]3CC[C@H]4[C@@H]5CC=C6C[C@@H](O)CC[C@]6(C)[C@H]5CC[C@]34C)CC2)n1` [Example 505, (R)-4-((3S,8S,9S,10R,13R,14S,17R)-3-hydroxy-10,13-dimethyl-2,3,4,7,8,9,10,11,12,13,14,15,16,17-tetradecahydro-1H-cyclopenta[a]phenanthren-17-yl)-1-(4-(3-methyl-1,2,4-oxadiazol-5-yl)piperidin-1-yl)pentan-1-one] stands less than 250 nM; under `CNC(=O)c1cccc(OC[C@@H](C)[C@H]2CC[C@H]3[C@@H]4CC=C5C[C@@H](O)CC[C@]5(C)[C@H]4CC[C@]23C)n1` [Example 256, 6-((S)-2-((3S,8S,9S,10R,13S,14S,17R)-3-hydroxy-10,13-dimethyl-2,3,4,7,8,9,10,11,12,13,14,15,16,17-tetradecahydro-1H-cyclopenta[a]phenanthren-17-yl)propoxy)-N-methylpicolinamide], 250 to 1000 nM.

For `C[C@H](CCC(=O)N(C)CCc1ccncc1)[C@H]1CC[C@H]2[C@@H]3CC=C4C[C@@H](O)CC[C@]4(C)[C@H]3CC[C@]12C` [Example 544, (R)-4-((3S,8S,9S,10R,13R,14S,17R)-3-hydroxy-10,13-dimethyl-2,3,4,7,8,9,10,11,12,13,14,15,16,17-tetradecahydro-1H-cyclopenta[a]phenanthren-17-yl)-N-methyl-N-(2-(pyridin-4-yl)ethyl)pentanamide], the IC50 is less than 250 nM. As for `C[C@H](OC(=O)N(C)C)[C@H]1CC[C@H]2[C@@H]3CC=C4C[C@@H](O)CC[C@]4(C)[C@H]3CC[C@]12C` [Example 461, (1S)-1-[(1S,3aS,3bS,7S,9aR,9bS,11aS)-7-hydroxy-9a,11a-dimethyl-1H,2H,3H,3aH,3bH,4H,6H,7H,8H,9H,9aH,9bH,10H,11H,11aH-cyclopenta[a]phenanthren-1-yl]ethyl N,N-dimethylcarbamate], the figure is 250 to 1000 nM.

`C[C@H](CCC(=O)N1CCC(C)(CN2CCOC(C)(C)C2=O)CC1)[C@H]1CC[C@H]2[C@@H]3CC=C4C[C@@H](O)CC[C@]4(C)[C@H]3CC[C@]12C` [Example 523, 4-((1-((R)-4-((3S,8S,9S,10R,13R,14S,17R)-3-hydroxy-10,13-dimethyl-2,3,4,7,8,9,10,11,12,13,14,15,16,17-tetradecahydro-1H-cyclopenta[a]phenanthren-17-yl)pentanoyl)-4-methylpiperidin-4-yl)methyl)-2,2-dimethylmorpholin-3-one] displayed an IC50 of less than 250 nM.

As to `C[C@H](CCC(=O)N1CCOCC1)[C@H]1CC[C@H]2[C@@H]3CC=C4C[C@@H](O)CC[C@]4(C)[C@H]3CC[C@]12C` [Example 7, (R)-4-((3S,8S,9S,10R,13R,14S,17R)-3-hydroxy-10,13-dimethyl-2,3,4,7,8,9,10,11,12,13,14,15,16,17-tetradecahydro-1H-cyclopenta[a]phenanthren-17-yl)-1-morpholinopentan-1-one], the IC50 was less than 250 nM. As for `C=CC1(O)CCN(C(=O)CC[C@@H](C)[C@H]2CC[C@H]3[C@@H]4CC=C5C[C@@H](O)CC[C@]5(C)[C@H]4CC[C@]23C)CC1` [Example 146, (R)-4-((3S,8S,9S,10R,13R,14S,17R)-3-hydroxy-10,13-dimethyl-2,3,4,7,8,9,10,11,12,13,14,15,16,17-tetradecahydro-1H-cyclopenta[a]phenanthren-17-yl)-1-(4-hydroxy-4-vinylpiperidin-1-yl) pentan-1-one], the figure is less than 250 nM. As for `CC[C@H]1NC[C@@H]2CON(C(=O)CC[C@@H](C)[C@H]3CC[C@H]4[C@@H]5CC=C6C[C@@H](O)CC[C@]6(C)[C@H]5CC[C@]34C)[C@@H]21` [Example 47, (R)-1-((3aS,6R,6aS)-6-ethylhexahydro-1H-pyrrolo[3,4-c]isoxazol-1-yl)-4-((3S,8S,9S,10R,13R,14S,17R)-3-hydroxy-10,13-dimethyl-2,3,4,7,8,9,10,11,12,13,14,15,16,17-tetradecahydro-1H-cyclopenta[a]phenanthren-17-yl)pentan-1-one], the figure is 250 to 1000 nM. As for `C[C@H](CCC(=O)N1CC[C@H](NC(=O)c2cnn(C)c2)C1)[C@H]1CC[C@H]2[C@@H]3CC=C4C[C@@H](O)CC[C@]4(C)[C@H]3CC[C@]12C` [Example 526, N-[(3S)-1-[(4R)-4-[(1R,3aS,3bS,7S,9aR,9bS,11aR)-7-hydroxy-9a,11a-dimethyl-1H,2H,3H,3aH,3bH,4H,6H,7H,8H,9H,9aH,9bH,10H,11H,11aH-cyclopenta[a]phenanthren-1-yl]pentanoyl]pyrrolidin-3-yl]-1-methyl-1H-pyrazole-4-carboxamide], the figure is less than 250 nM.
